# Like-named read-outs stand apart in the source and are kept apart here.
# Experiments:
# recombinant human PFK-L = target: T1, recombinant human PFK-L (Homo sapiens, UniProt P17858); assay: ALDO-TIM-G3PDH enzyme-linked kinetic assay, PFK-L; format: biochemical; settings: for K0.5F6P + modulator / VmaxF6P + modulator: ATP 0.5mM; for K0.5F6P + modulator / VmaxF6P + modulator / K0.5ATP + modulator / VmaxATP + modulator: N=3, mean (SD); for K0.5ATP + modulator / VmaxATP + modulator: F6P 4mM
# T1 construct: made in house; host or cells: PFK-deficient Saccharomyces cerevisiae
# T1 sequence (P17858 1-780): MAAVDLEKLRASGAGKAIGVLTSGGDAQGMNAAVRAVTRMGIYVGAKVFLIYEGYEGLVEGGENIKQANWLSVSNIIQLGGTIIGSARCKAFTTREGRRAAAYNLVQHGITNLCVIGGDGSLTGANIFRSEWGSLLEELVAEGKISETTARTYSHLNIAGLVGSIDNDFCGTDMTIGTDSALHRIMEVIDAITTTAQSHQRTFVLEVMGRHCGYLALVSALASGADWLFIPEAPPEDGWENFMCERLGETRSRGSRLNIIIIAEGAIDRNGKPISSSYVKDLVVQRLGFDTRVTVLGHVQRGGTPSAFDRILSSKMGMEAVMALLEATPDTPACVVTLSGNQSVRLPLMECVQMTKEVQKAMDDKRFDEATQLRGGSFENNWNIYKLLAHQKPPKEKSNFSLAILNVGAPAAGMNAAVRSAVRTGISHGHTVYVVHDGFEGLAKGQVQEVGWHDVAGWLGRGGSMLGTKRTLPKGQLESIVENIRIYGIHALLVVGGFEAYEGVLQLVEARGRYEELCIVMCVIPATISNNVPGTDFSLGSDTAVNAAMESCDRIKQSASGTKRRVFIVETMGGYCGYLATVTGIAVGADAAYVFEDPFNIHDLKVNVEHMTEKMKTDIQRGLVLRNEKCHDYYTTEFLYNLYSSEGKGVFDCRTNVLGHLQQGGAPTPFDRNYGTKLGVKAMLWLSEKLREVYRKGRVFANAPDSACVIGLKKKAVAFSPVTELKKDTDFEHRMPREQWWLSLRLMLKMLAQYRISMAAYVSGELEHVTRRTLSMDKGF
# Protocol: (§1) Recombinant human PFKs were expressed in PFK-deficient Saccharomyces cerevisiae and purified using the methods described previously, adapting earlier materials and protocols. Production of PFK intended for use in ATP titration experiments used 1 mM F6P as a tetramer stabilising agent in protein purification and storage buffers. Production of PFK intended for use in F6P titration experiments used 1 mM ATP as a tetramer stabilising agent in protein purification and storage buffers. Experimental details on the purification and characterisation procedures including figures showing SDS–PAGE gels of the highly pure PFKs used in the kinetic experiments described in this work have been recently published.
# (§2) Assay buffer consisted of 50 mM TEA, 100 mM KCl, 10 mM MgCl2, 1 mM Tris(2-carboxyethyl)phosphine hydrochloride (TCEP), 10% glycerol, pH 7.4. Assay mix consisted of 5 units/ml glycerol-3-phosphate dehydrogenase (G3PDH, Sigma–Aldrich G6880), 2.5 units/ml aldolase (Sigma–Aldrich A2714), 25 units/ml triosephosphate isomerase (TIM, Sigma–Aldrich T6258), and 1.25 mM NADH. ATP and F6P were obtained from Sigma–Aldrich (A2383 and F3627, respectively). For ATP titrations, 38 µl of buffer or ligand were added to a clear non-binding 96-well plate. 40 µl of assay mix containing 10 mM F6P (final concentration 4 mM) was added and the plate was incubated at 25°C for 5 min. An amount of 2 µl of PFK isoforms were added to each well from stock concentrations of 150 µg/ml and the reaction was immediately started with 20 µl of ATP at varying concentrations. For F6P titrations, 30 µl of buffer or ligand was added to a clear non-binding 96-well plate. An amount of 40 µl of assay mix containing 1.25 mM ATP (final concentration 0.5 mM) was added and the plate was incubated at 25°C for 5 min. An amount of 5 µl of PFK isoforms were added to each well from stock concentrations of 200 µg/ml and the reaction was immediately started with 20 µl F6P at varying concentrations. All ligands and substrates (including ATP) were used at pH 7.4. All metabolites were obtained from Sigma–Aldrich unless otherwise stated. […] A SpectraMax M5 Multi-Mode Microplate Reader was used to measure A340nm at 13 s intervals for 10 min. All experiments were performed in triplicate unless otherwise stated.
# (§3) Time-dependent absorbance change was converted into rate of NADH oxidation (µM s^−1) or specific activity (µmol min^−1 mg protein^−1) using the Beer-Lambert law (molar extinction coefficient of NADH 6.22 mM^−1 cm^−1). The initial rate of reaction was used to avoid accumulation of ADP, which activates PFK, interfering with the determination of kinetic properties. Non-linear regression analysis was performed on substrate titration data using GraphPad Prism 7, with curves fitted using allosteric sigmoidal models, enabling determination of steady-state kinetic values.
# recombinant human PFK-P = target: T2, recombinant human PFK-P (Homo sapiens, UniProt Q01813); assay: ALDO-TIM-G3PDH enzyme-linked kinetic assay, PFK-P; format: biochemical; settings: for K0.5F6P + modulator / VmaxF6P + modulator: ATP 0.5mM; for K0.5F6P + modulator / VmaxF6P + modulator / K0.5ATP + modulator / VmaxATP + modulator: N=3, mean (SD); for K0.5ATP + modulator / VmaxATP + modulator: F6P 4mM
# T2 construct: made in house; host or cells: PFK-deficient Saccharomyces cerevisiae
# T2 sequence (Q01813 1-784): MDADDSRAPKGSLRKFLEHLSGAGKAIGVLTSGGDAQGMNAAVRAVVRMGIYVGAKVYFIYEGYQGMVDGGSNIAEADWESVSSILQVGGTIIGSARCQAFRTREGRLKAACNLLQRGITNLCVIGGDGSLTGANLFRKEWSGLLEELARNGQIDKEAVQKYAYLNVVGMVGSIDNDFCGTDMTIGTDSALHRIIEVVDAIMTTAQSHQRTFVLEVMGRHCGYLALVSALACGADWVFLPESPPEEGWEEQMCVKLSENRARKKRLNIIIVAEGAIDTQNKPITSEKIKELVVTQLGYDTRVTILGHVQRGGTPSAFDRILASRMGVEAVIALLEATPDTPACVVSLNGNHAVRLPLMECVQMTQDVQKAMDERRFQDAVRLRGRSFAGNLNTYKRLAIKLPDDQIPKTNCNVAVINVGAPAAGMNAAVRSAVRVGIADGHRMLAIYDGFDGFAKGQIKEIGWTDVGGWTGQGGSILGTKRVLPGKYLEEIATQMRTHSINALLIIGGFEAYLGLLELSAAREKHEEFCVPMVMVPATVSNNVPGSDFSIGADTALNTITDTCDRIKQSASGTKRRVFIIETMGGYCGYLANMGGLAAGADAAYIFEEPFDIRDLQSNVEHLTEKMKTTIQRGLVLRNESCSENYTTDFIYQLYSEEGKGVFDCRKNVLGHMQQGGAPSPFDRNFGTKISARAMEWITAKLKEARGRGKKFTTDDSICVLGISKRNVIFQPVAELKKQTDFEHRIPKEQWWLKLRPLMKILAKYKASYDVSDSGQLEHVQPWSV
# Protocol: as §1, §2, §3
# PFK = system: PFK; parameters: key to Effect (activator or inhibitor of PFK): “+” indicates activator; “-“ indicates inhibitor; settings: cited from earlier work; for IC50: asterisk not explained, read-out: IC50 or AC50 (inhibitor); for IC50 / IC50 or AC50 (activator): ref Moreno-Sanchez et al., 2012; for Effect (activator or inhibitor of PFK): published literature, ref selected references in Supplementary Table 1; for IC50 or AC50 (activator): unit inferred
# [1] = second of three values marked *
smiles,measurement,setting,value
O=C(O)CC(O)(CC(=O)O)C(=O)O [Citrate],IC50^citrate,"recombinant human PFK-L; PFK-L, dose-response",no clear relationship
same,change in kcat^ATP/K0.5^ATP compared with control PFK without modulator,"recombinant human PFK-L; PFK-L, modulator 600 µM",+28%
same,change in kcat^F6P/K0.5^F6P compared with control PFK without modulator,"recombinant human PFK-L; PFK-L, modulator 600 µM",+2%
same,K0.5F6P + modulator,"recombinant human PFK-L; PFK-L, modulator 600 µM",2471 (244) M
same,VmaxF6P + modulator,"recombinant human PFK-L; PFK-L, modulator 600 µM",6.52 (0.71) moles/min/mg
same,K0.5ATP + modulator,"recombinant human PFK-L; PFK-L, modulator 600 µM",108.4 (9.5) M
same,VmaxATP + modulator,"recombinant human PFK-L; PFK-L, modulator 600 µM",36.14 (1.12) moles/min/mg
same,IC50,"recombinant human PFK-P; dose-response, read-out: IC50^citrate",177 ± 132 µM
same,change in kcat^ATP/K0.5^ATP compared with control PFK without modulator,recombinant human PFK-P; modulator 600 µM,+136%
same,change in kcat^F6P/K0.5^F6P compared with control PFK without modulator,recombinant human PFK-P; modulator 600 µM,−78%
same,K0.5F6P + modulator,recombinant human PFK-P; modulator 600 µM,1494 (627) M
same,VmaxF6P + modulator,recombinant human PFK-P; modulator 600 µM,0.43 (0.12) moles/min/mg
same,K0.5ATP + modulator,recombinant human PFK-P; modulator 600 µM,46.0 (14.4) M
same,VmaxATP + modulator,recombinant human PFK-P; modulator 600 µM,10.18 (0.89) moles/min/mg
same,IC50,PFK; first of three values marked *,5900 µM
same,Effect (activator or inhibitor of PFK),PFK,-
same,IC50,PFK; [1],490 µM
same,IC50,PFK; third of three values marked *,6700 µM
"O=P(O)(O)OC[C@H]1O[C@@](CO)(OP(=O)(O)O)[C@@H](O)[C@@H]1O [F26BP, fructose 2,6-bisphosphate]","effect on PFK activity, in words",recombinant human PFK-L; PFK-L,strongly activated
same,decrease in AC50^F26BP for PFK-L compared with PFK-P,recombinant human PFK-L; PFK-L vs PFK-P,> 50 fold
same,allosteric constant K0.5^ATP+F26BP/K0.5^ATP,"recombinant human PFK-L; PFK-L, ATP titration",0.92
same,AC50,"recombinant human PFK-L; PFK-L, activation, read-out: AC50^F26BP",0.17 µM
same,change in kcat^ATP/K0.5^ATP compared with control PFK without modulator,"recombinant human PFK-L; PFK-L, modulator 10 µM",+6.5%
same,change in kcat^F6P/K0.5^F6P compared with control PFK without modulator,"recombinant human PFK-L; PFK-L, modulator 10 µM",+148%
same,K0.5F6P + modulator,"recombinant human PFK-L; PFK-L, modulator 10 µM",698 (105) M
same,VmaxF6P + modulator,"recombinant human PFK-L; PFK-L, modulator 10 µM",5.07 (0.41) moles/min/mg
same,K0.5ATP + modulator,"recombinant human PFK-L; PFK-L, modulator 10 µM",139.4 (12.3) M
same,VmaxATP + modulator,"recombinant human PFK-L; PFK-L, modulator 10 µM",38.57 (1.23) moles/min/mg
same,"effect on PFK activity, in words",recombinant human PFK-P,strongly activated
same,allosteric constant K0.5^ATP+F26BP/K0.5^ATP,recombinant human PFK-P; ATP titration,0.54
same,AC50,"recombinant human PFK-P; activation, read-out: AC50^F26BP",9.13 µM
same,change in kcat^ATP/K0.5^ATP compared with control PFK without modulator,recombinant human PFK-P; modulator 10 µM,+88%
same,change in kcat^F6P/K0.5^F6P compared with control PFK without modulator,recombinant human PFK-P; modulator 10 µM,+111%
same,K0.5F6P + modulator,recombinant human PFK-P; modulator 10 µM,2143 (132) M
same,VmaxF6P + modulator,recombinant human PFK-P; modulator 10 µM,2.45 (0.18) moles/min/mg
same,K0.5ATP + modulator,recombinant human PFK-P; modulator 10 µM,176.8 (33.8) M
same,VmaxATP + modulator,recombinant human PFK-P; modulator 10 µM,31.26 (1.96) moles/min/mg
same,IC50 or AC50 (activator),PFK; first of three values marked *,0.53 µM
same,Effect (activator or inhibitor of PFK),PFK,+
same,IC50 or AC50 (activator),PFK; [1],4.6 µM
same,IC50 or AC50 (activator),PFK; third of three values marked *,0.58 µM
"C=C(OP(=O)(O)O)C(=O)O [PEP, phosphoenolpyruvate]",change in kcat^ATP/K0.5^ATP compared with control PFK without modulator,"recombinant human PFK-L; PFK-L, modulator 1100 µM",+1%
same,change in kcat^F6P/K0.5^F6P compared with control PFK without modulator,"recombinant human PFK-L; PFK-L, modulator 1100 µM",+92%
same,K0.5F6P + modulator,"recombinant human PFK-L; PFK-L, modulator 1100 µM",952.8 (137.7) M
same,VmaxF6P + modulator,"recombinant human PFK-L; PFK-L, modulator 1100 µM",5.36 (0.49) moles/min/mg
same,K0.5ATP + modulator,"recombinant human PFK-L; PFK-L, modulator 1100 µM",148.7 (18.6) M
same,VmaxATP + modulator,"recombinant human PFK-L; PFK-L, modulator 1100 µM",34.91 (1.59) moles/min/mg
same,change in kcat^ATP/K0.5^ATP compared with control PFK without modulator,recombinant human PFK-P; modulator 1100 µM,−40%
same,change in kcat^F6P/K0.5^F6P compared with control PFK without modulator,recombinant human PFK-P; modulator 1100 µM,+9%
same,K0.5F6P + modulator,recombinant human PFK-P; modulator 1100 µM,1378 (96) M
same,VmaxF6P + modulator,recombinant human PFK-P; modulator 1100 µM,0.81 (0.04) moles/min/mg
same,K0.5ATP + modulator,recombinant human PFK-P; modulator 1100 µM,352.3 (133.2) M
same,VmaxATP + modulator,recombinant human PFK-P; modulator 1100 µM,23.07 (2.40) moles/min/mg
same,Effect (activator or inhibitor of PFK),PFK,-

# Reference: PMC7702303, “Biochemical and transcript level differences between the three human phosphofructokinases show optimisation of each isoform for specific metabolic niches” (Biochemical Journal, 2020)
